Results reported in patent US20220047716A1, “COMBINATION THERAPIES WITH ANTI-FOLATE RECEPTOR ANTIBODY CONJUGATES” (SUTRO BIOPHARMA, INC., priority 2018, published 2022).
Values joined by “and” are separate entries in the source; they are usually repeats but may differ in a detail not shown here. Equal entries are not always repeated.

Tests used:
[1] = Body weight change in rats given free drugs; assay type: in vivo; settings: IV bolus, free drug (I) two doses (0.4, 1 mg/kg), free drug (II) 0.4 mg/kg
[2] = Pharmacokinetics of free drugs (I) and (II) in Sprague-Dawley rats; assay type: in vivo; settings: IV bolus 0.4 or 1 mg/kg, data not shown
Description: To assess the pharmacokinetic profile of free drug (I), female Sprague-Dawley rats (mean body weight 250 g) were given either a 0.4 mg/kg or 1 mg/kg dose by IV bolus administration (N=three animal per dose level) via an indwelling jugular vein catheter. Blood samples were collected at […], 1, 2, 8, 24, 32, 48, and 72 hour post-dose. Levels of free drug (I) and (II) were measured by LC-MS/MS and non-compartmental pharmacokinetic analysis was conducted using Phoenix WinNonlin Version 6.4 (Pharsight Corporation). The PK of free drug (I) could not be estimated due to the fact that concentrations of (I) increased from 2 to 8 hours and were undetectable thereafter.

MC38-hFolRα tumors = assay: MC38-hFolRα tumor model, combination with Avelumab; settings: ADC Molecule 4 10 or 15 mg/kg once IV; Avelumab q3dx3 intraperitoneally
Description: Growth curves are shown until >50% of animals in the single agent treatment groups were euthanized due to reaching tumor size limit based on IACUC protocol. […] Statistical analysis for comparison to vehicle control was performed using one-way ANOVA with Dunnett's multiple comparisons test. A probability of less than 5% (p<0.05) was considered as significant. […] All graphs are presented as mean or individual values±SEM.

Igrov1 tumors = assay: Igrov1 ovarian tumor xenograft efficacy in SCID Beige mice; assay type: in vivo; settings: Igrov1, day 29; ADC Molecule 4 2.5 mg/kg single dose; carboplatin 60 mg/kg q7dx2
Description: Igrov1 ovarian cancer cells were implanted subcutaneously into SCID Beige mice and treated with a single dose of 2.5 mg/kg FolRα ADC variants listed in Table 20. ADCs were administered when tumors reached ˜150 mm^3.

COc1cc2cc(c1Cl)N(C)C(=O)C[C@H](OC(=O)[C@H](C)N(C)C(=O)CCC(C)(C)S)[C@]1(C)O[C@H]1[C@H](C)[C@@H]1C[C@@](O)(NC(=O)O1)[C@H](OC)/C=C/C=C(/C)C2 [free drug (II), reference compound]
Effect on body weight [1]: progressive body weight loss was observed

CN[C@H](C(=O)N[C@H](C(=O)N(C)[C@H](/C=C(\C)C(=O)O)C(C)C)C(C)(C)C)C(C)(C)c1cccc(N)c1 [free drug (I)]
Plasma level of free drug [2]: undetectable at 24 hours post dose
Effect on body weight [1]: did not have an effect on the body weight of the animals

Avelumab: PD-L1 inhibitor Avelumab (clinical grade)
Initial effect on MC38-hFolRα tumor growth (MC38-hFolRα tumors): tumor stasis until approximately day 7

N.N.O=C([O-])C1(C(=O)[O-])CCC1.[Pt+2] [carboplatin]
Final mean tumor size (Igrov1 tumors): 842 mm^3
Tumor growth inhibition (TGI) (Igrov1 tumors): 70% and 47%
